Data from PMC10329973 (Clinical pharmacology in drug development, 2023).
Like-named read-outs stand apart in the source and are kept apart here.

Key:
[1] = mouse, minimum effective dose 2 mg/kg IP; cited from earlier work
over 40 CNS targets = settings: cited from earlier work
CYP3A = settings: ref unpublished data and Ref 35; cited from earlier work
rats and dogs = assay: Repeat-dose toxicity studies of up to 14 days; assay type: in vivo; settings: repeat-dose toxicity studies up to 14 days, dose-limiting effect in both species
[2] = system: murine MCAO model of ischemic brain injury; settings: cited from earlier work
[3] = Single ascending dose study NP10679-101, plasma pharmacokinetics; assay type: in vivo, human; settings: for half-life: healthy volunteers, SAD and MAD studies overall; for Vd: SAD
hERG channel = settings: read-out: IC50, hERG channel; cited from earlier work
[4] = mouse; cited from earlier work
Plasma protein binding = assay type: in vitro ADME, mice, rats, dogs, and humans; settings: mouse, rat, dog, human
healthy adult volunteers = assay: Single ascending dose study NP10679-101, safety and tolerability; assay type: in vivo
[5] = In vitro metabolic stability, hepatic microsomes; assay type: in vitro ADME, mice, rats, dogs, and humans; settings: mouse, rat, dog, human, liver microsomes
[6] = Multiple ascending dose study NP10679-102, plasma pharmacokinetics; assay type: in vivo; settings: human, iv; for Cmax / Tmax: MAD; for half-life: T 1/2, MAD
[7] = 25 mg, 25 mg IV once daily, day 1
[8] = 25 mg, 25 mg IV once daily, day 2
[9] = 25 mg, 25 mg IV once daily, day 3
[10] = 25 mg, 25 mg IV once daily, day 4
[11] = 25 mg, 25 mg IV once daily, day 5
[12] = 50 mg, 50 mg IV once daily, day 1
[13] = 50 mg, 50 mg IV once daily, day 2
[14] = 50 mg, 50 mg IV once daily, day 3
[15] = 50 mg, 50 mg IV once daily, day 4
[16] = 50 mg, 50 mg IV once daily, day 5
[17] = 100 mg, 100 mg IV once daily, day 1
[18] = 100 mg, 100 mg IV once daily, day 2
[19] = 100 mg, 100 mg IV once daily, day 3
[20] = 100 mg, 100 mg IV once daily, day 4
[21] = 100 mg, 100 mg IV once daily, day 5

SMILES: O=C1CCc2cc(OC[C@H](O)CN3CCN(c4ccc(C(F)(F)F)cc4)CC3)ccc2N1 [NP10679, (R)-6-(2-Hydroxy-3-(4-(4-(trifluoromethyl)phenyl)piperazin-1-yl)propoxy)-3,4-dihydroquinolin-2(1H)-one]
- AUC(0-inf) [1]: 5690 ng·h/mL
- Cmax [1]: 581 ng/mL
- activity at over 40 CNS targets (over 40 CNS targets): lacks demonstrable activity
- time-dependent inhibition of CYP3A (CYP3A): does not lead to significant time-dependent inhibition
- adverse effect directly related to IV administration (rats and dogs): sedation
- minimum effective dose in the MCAO model ([2]; IP, mouse): 2 mg/kg
- infarct volume ([2]; administered 15 minutes prior to occlusion): effective in reducing infarct volume
- half-life [3]: ~ 20 h
- clearance ([3]; human, plasma, intravenous): 163 to 200 mL/min
- half-life ([3]; human, plasma, intravenous, half-life): 20 h
- Vd ([3]; human, plasma, intravenous, volume of distribution): > 221 L
- AUC(0-inf) ([3]; human, plasma, iv, 5 mg): 553 ± 204 ng·h/mL
- AUC(0-t) ([3]; human, plasma, iv, 5 mg): 335 ± 46 ng·h/mL
- Cmax ([3]; human, plasma, iv, 5 mg): 27 ± 15 ng/mL
- clearance ([3]; human, plasma, iv, 5 mg): 163 mL/min
- Vd ([3]; human, plasma, iv, 5 mg, VSS, single IV infusion 5 mg, mean ± SD): 435 ± 178 L
- Vd ([3]; human, plasma, iv, 5 mg, Vd, area, mean, single IV infusion 5 mg): 396 L
- AUC(0-inf) ([3]; human, plasma, iv, 15 mg): 1280 ± 227 ng·h/mL
- AUC(0-t) ([3]; human, plasma, iv, 15 mg): 1140 ± 233 ng·h/mL
- Cmax ([3]; human, plasma, iv, 15 mg): 99 ± 67 ng/mL
- clearance ([3]; human, plasma, iv, 15 mg): 200 mL/min
- Vd ([3]; human, plasma, iv, 15 mg, VSS, single IV infusion 15 mg, mean ± SD): 306 ± 41 L
- Vd ([3]; human, plasma, iv, 15 mg, Vd, area, mean, single IV infusion 15 mg): 346 L
- AUC(0-inf) ([3]; human, plasma, iv, 50 mg): 4680 ± 797 ng·h/mL
- AUC(0-t) ([3]; human, plasma, iv, 50 mg): 3980 ± 544 ng·h/mL
- Cmax ([3]; human, plasma, iv, 50 mg): 415 ± 107 ng/mL
- clearance ([3]; human, plasma, iv, 50 mg): 183 mL/min
- Vd ([3]; human, plasma, iv, 50 mg, VSS, single IV infusion 50 mg, mean ± SD): 255 ± 20 L
- Vd ([3]; human, plasma, iv, 50 mg, Vd, area, mean, single IV infusion 50 mg): 286 L
- AUC(0-inf) ([3]; human, plasma, iv, 100 mg): 9860 ± 3220 ng·h/mL
- AUC(0-t) ([3]; human, plasma, iv, 100 mg): 9370 ± 3090 ng·h/mL
- Cmax ([3]; human, plasma, iv, 100 mg): 746 ± 223 ng/mL
- clearance ([3]; human, plasma, iv, 100 mg): 183 mL/min
- Vd ([3]; human, plasma, iv, 100 mg, VSS, single IV infusion 100 mg, mean ± SD): 259 ± 57 L
- Vd ([3]; human, plasma, iv, 100 mg, Vd, area, mean, single IV infusion 100 mg): 317 L
- AUC(0-inf) ([3]; human, plasma, iv, 150 mg): 13900 ± 1280 ng·h/mL
- AUC(0-t) ([3]; human, plasma, iv, 150 mg): 13600 ± 1220 ng·h/mL
- Cmax ([3]; human, plasma, iv, 150 mg): 954 ± 370 ng/mL
- clearance ([3]; human, plasma, iv, 150 mg): 183 mL/min
- Vd ([3]; human, plasma, iv, 150 mg, VSS, single IV infusion 150 mg, mean ± SD): 250 ± 23 L
- Vd ([3]; human, plasma, iv, 150 mg, Vd, area, mean, single IV infusion 150 mg): 286 L
- AUC(0-inf) ([3]; human, plasma, iv, 200 mg): 20200 ± 4600 ng·h/mL
- AUC(0-t) ([3]; human, plasma, iv, 200 mg): 19700 ± 4370 ng·h/mL
- Cmax ([3]; human, plasma, iv, 200 mg): 2070 ± 798 ng/mL
- clearance ([3]; human, plasma, iv, 200 mg): 167 mL/min
- Vd ([3]; human, plasma, iv, 200 mg, VSS, single IV infusion 200 mg, mean ± SD): 221 ± 34 L
- Vd ([3]; human, plasma, iv, 200 mg, Vd, area, mean, single IV infusion 200 mg): 245 L
- IC50 (hERG channel): 620 nM
- oral availability F% [4]: 76%
- fraction unbound (Plasma protein binding): 0.01 to 0.026
- dissociative symptoms or cognitive impairment (CADSS, DSST) (healthy adult volunteers; SAD): no evidence
- serious adverse events (SAEs) (healthy adult volunteers; SAD): No serious adverse events
- vital signs or ECGs (healthy adult volunteers; SAD): no clinically significant changes
- changes in mean values of HDRS, MMSE, SBQ-R, GAD-7 and CADSS (healthy adult volunteers; SAD study): no detectable changes
- subjects reaching a level 3 score on the MOAA/S (healthy adult volunteers; SAD, 200 mg): no subject
- subjects with conjunctival and scleral hyperemia (healthy adult volunteers; SAD, 200 mg): 3 of 6
- subjects presenting with somnolence (healthy adult volunteers; SAD, at doses of 50 mg - 200 mg): 5 of 6
- subjects presenting with somnolence (healthy adult volunteers; SAD, at each of doses 5 and 15 mg): One of 6
- blood pressure (both systolic and diastolic) (healthy adult volunteers; SAD, highest two doses): non-clinically significant lower blood pressure
- subjects describing intrusive thoughts (healthy adult volunteers; SAD, single 150 mg dose): one subject
- Bond-Lader VAS scale (healthy adult volunteers; SAD, starting at 50 mg through 200 mg): moderate increases
- half-life [5]: > 2 h
- AUC(0-t) ([6]; 25 mg, AUC 0–24, MAD, 25 mg IV once daily, day 1): 1470 ± 186 ng·h/mL
- AUC(0-t) ([6]; 25 mg, AUC 0–24, MAD, 25 mg IV once daily, day 2): 1920 ± 305 ng·h/mL
- AUC(0-t) ([6]; 25 mg, AUC 0–24, MAD, 25 mg IV once daily, day 3): 2090 ± 303 ng·h/mL
- AUC(0-t) ([6]; 25 mg, AUC 0–24, MAD, 25 mg IV once daily, day 4): 2170 ± 397 ng·h/mL
- AUC(0-t) ([6]; 25 mg, AUC 0–24, MAD, 25 mg IV once daily, day 5): 2260 ± 478 ng·h/mL
- AUC(0-t) ([6]; 25 mg, AUC 0–96, MAD, 25 mg IV once daily, day 5): 3880 ± 1140 ng·h/mL
- Cmax [6, 7]: 208 ± 72 ng/mL
- Cmax [6, 8]: 211 ± 57 ng/mL
- Cmax [6, 9]: 207 ± 35 ng/mL
- Cmax [6, 10]: 250 ± 34 ng/mL
- Cmax [6, 11]: 213 ± 26 ng/mL
- half-life [6, 7]: 15 ± 3 h
- half-life [6, 8]: 17 ± 2 h
- half-life [6, 9]: 16 ± 3 h
- half-life [6, 10]: 19 ± 5 h
- half-life [6, 11]: 36 ± 15 h
- Tmax [6, 7]: 0.5 h
- Tmax [6, 8]: 0.9 ± 0.8 h
- Tmax [6, 9]: 0.8 ± 0.4 h
- Tmax [6, 10]: 0.5 h
- Tmax [6, 11]: 0.5 h
- AUC(0-t) ([6]; 50 mg, AUC 0–24, MAD, 50 mg IV once daily, day 1): 2650 ± 283 ng·h/mL
- AUC(0-t) ([6]; 50 mg, AUC 0–24, MAD, 50 mg IV once daily, day 2): 3300 ± 479 ng·h/mL
- AUC(0-t) ([6]; 50 mg, AUC 0–24, MAD, 50 mg IV once daily, day 3): 3890 ± 424 ng·h/mL
- AUC(0-t) ([6]; 50 mg, AUC 0–24, MAD, 50 mg IV once daily, day 4): 4110 ± 485 ng·h/mL
- AUC(0-t) ([6]; 50 mg, AUC 0–24, MAD, 50 mg IV once daily, day 5): 4290 ± 500 ng·h/mL
- AUC(0-t) ([6]; 50 mg, AUC 0–96, MAD, 50 mg IV once daily, day 5): 6960 ± 1170 ng·h/mL
- Cmax [6, 12]: 376 ± 99 ng/mL
- Cmax [6, 13]: 276 ± 60 ng/mL
- Cmax [6, 14]: 335 ± 73 ng/mL
- Cmax [6, 15]: 389 ± 116 ng/mL
- Cmax [6, 16]: 394 ± 72 ng/mL
- half-life [6, 12]: 18 ± 4 h
- half-life [6, 13]: 18 ± 3 h
- half-life [6, 14]: 26 ± 16 h
- half-life [6, 15]: 16 ± 1 h
- half-life [6, 16]: 21 ± 3 h
- Tmax [6, 12]: 0.8 ± 0.8 h
- Tmax [6, 13]: 1 ± 0.4 h
- Tmax [6, 14]: 0.8 ± 0.5 h
- Tmax [6, 15]: 0.8 ± 0.5 h
- Tmax [6, 16]: 0.7 ± 0.4 h
- AUC(0-t) ([6]; 100 mg, AUC 0–24, MAD, 100 mg IV once daily, day 1): 5630 ± 625 ng·h/mL
- AUC(0-t) ([6]; 100 mg, AUC 0–24, MAD, 100 mg IV once daily, day 2): 7320 ± 279 ng·h/mL
- AUC(0-t) ([6]; 100 mg, AUC 0–24, MAD, 100 mg IV once daily, day 3): 8710 ± 458 ng·h/mL
- AUC(0-t) ([6]; 100 mg, AUC 0–24, MAD, 100 mg IV once daily, day 4): 9510 ± 1200 ng·h/mL
- AUC(0-t) ([6]; 100 mg, AUC 0–24, MAD, 100 mg IV once daily, day 5): 8980 ± 376 ng·h/mL
- AUC(0-t) ([6]; 100 mg, AUC 0–96, MAD, 100 mg IV once daily, day 5): 13900 ± 962 ng·h/mL
- Cmax [6, 17]: 1240 ± 1150 ng/mL
- Cmax [6, 18]: 570 ± 29 ng/mL
- Cmax [6, 19]: 812 ± 190 ng/mL
- Cmax [6, 20]: 873 ± 236 ng/mL
- Cmax [6, 21]: 1080 ± 295 ng/mL
- half-life [6, 17]: 22 ± 5 h
- half-life [6, 18]: 22 ± 5 h
- half-life [6, 19]: 22 ± 5 h
- half-life [6, 20]: 34 ± 28 h
- half-life [6, 21]: 13 ± 5 h
- Tmax [6, 17]: 0.5 h
- Tmax [6, 18]: 0.8 ± 0.3 h
- Tmax [6, 19]: 0.5 h
- Tmax [6, 20]: 0.6 ± 0.3 h
- Tmax [6, 21]: 0.5 h
